Test results reported in patent US20050282755A1, “Compositions having antimicrobial activity and uses thereof” (priority 2004, published 2005).
Values after ≈ are worked out from the molar mass of the structure shown. Like-named read-outs stand apart in the source and are kept apart here. Non-standard residues stand in square brackets, D forms with d. Residues, ends and D or L forms follow the SMILES beside them. *: point of attachment. Stearoyl = CCCCCCCCCCCCCCCCCC(=O)*; Lauroyl = CCCCCCCCCCCC(=O)*

Key:
HeLa cells = conditions: 16 h
Jurkat cells = assay type: cell-based; conditions: 16 h
Method: Toxicity of peptide compositions for mammalian cells was determined by using a metabolic viability assay. For this assay 4×10^5 HeLa cells were seeded per well into a microwell plate (50 microliters volume). Jurkat cells also were utilized in separate experiments. The cells were incubated for 16 hours at 37° C. under mammalian cell culture conditions. Two fold serial dilutions for each peptide were prepared and added to the cells (final volume 100 microliters) and incubated for 16 hours at 37° C. For each dilution series control wells containing cells without peptide were included. The metabolic activity and viability of the cells were determined by using a commercially available assay (CellTiter96 assay, Promega Corp.). According to manufacturer's protocol 20 microliters of CellTiter reagent was added to each well and incubated at 37° C. for 1-4 hours. The CellTiter assay is a commercial version of the MTT assay, which measures the conversion of a tetrazolium […] into a colored formazan salt in metabolically active cells. The formation of the formazan product can be measured at 470 nm and is generally accepted as a measure of cellular viability. The cells were incubated at 37° C. and monitored for color development. The conversion of CellTiter reagent was measured at 470 nm using a Versamax plate reader (Molecular Devices). The viability of peptide treated cells is expressed as IC50 (i.e., concentration that leads to a 50% reduction of viability relative to the untreated control). Table 7A reports IC50 values for HeLa cells cultured in OptiMEM or 10% FBS when contacted with peptide compositions from Table 3, and Table 7B reports IC50 values for HeLa cells or Jurkat cells contacted with peptide compositions from Table 3.

[1] = tested on: Staphylococcus aureus ATCC 29213; assay: MIC, NCCLS M7-A6 broth microdilution, cation-adjusted Mueller Hinton broth (Table 9, no superscript); assay type: cell-based; conditions: ATCC 29213
How it was run: (§1)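 Values come from a broth microdilution assay run in cation-adjusted Mueller Hinton broth with an inoculum of 5×10^5 to 1×10^6 CFU/milliliter, incubated overnight at 37° C and read as absence of visible turbidity.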

[2] = tested on: Candida albicans ATCC 18804; assay: MIC in yeasts, NCCLS M27-A2 broth microdilution, RPMI 1640 (Table 9, letter e); assay type: cell-based; conditions: ATCC 18804
How it was run: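 Broth microdilution per NCCLS M27-A2 in RPMI 1640 with glutamine and phenol red, final inoculum 0.5×10^3–2.5×10^3 CFU/milliliter. Incubated 24 to 48 hours at 37° C; MIC is the lowest peptide concentration with no visible growth.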

[3] = tested on: Escherichia coli ATCC 25922; assay: MIC, NCCLS M7-A6 broth microdilution (Table 9, no superscript); assay type: cell-based; conditions: ATCC 25922
How it was run: as §1

Salmonella dublin (Lane) = assay: as above; assay type: cell-based
How it was run: as §1

[4] = tested on: Pseudomonas aeruginosa ATCC 27853; assay: as above; assay type: cell-based; conditions: ATCC 27853
How it was run: as §1

[5] = tested on: Staphylococcus epidermidis ATCC 12228; assay: as above; assay type: cell-based; conditions: ATCC 12228
How it was run: as §1

[6] = tested on: Propionibacterium acnes ATCC 6919; assay type: cell-based
How it was run: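 MIC by non-standard broth microdilution in reinforced Clostridial broth, log-phase P. acnes inoculum at 5×10^5 to 1×10^6 CFU/mL. Plates were held anaerobically 48–72 h at 37° C; MIC was the lowest peptide concentration with no visible turbidity relative to the no-peptide control.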

IL-12 release = assay: Anti-inflammation assay: IL-12 release in PBMCs stimulated by P. acnes (IL-12p70 ELISA); assay type: cell-based, human; conditions: for reduction of IL-12 release in PBMs stimulated by P. acnes: 12.5 to 0.78 micrograms per milliliter; for IC50: PBMCs stimulated by P. acnes, over night, read-out: IC50 value, reduction of IL-12 release
Method: An assay that detected reductions in IL-12 released in whole human blood cells (PBMCs) was utilized to detect reductions in inflammation elicited by peptide compositions described herein. The assay utilized the following materials and reagents: whole human blood cells; P. acnes; peptides 55, 67 and 93 from Table 3; IL-12p70 ELISA kit (eBiosciences); RPMI 1640 growth medium; PBS; and a 96-well microtiter plate. PBMCs were prepared from whole human blood cells according to standard procedures and cells were resuspended in RPMI 1640 and 10% FCS. Cells were seeded at 250,000 cells per well in a 96-well microtiter plate and incubated for 90 minutes. […] Controls included untreated cells, P. acnes alone or a peptide alone. The cells were incubated over night at 37° C., and cell supernatants were collected and stored at −80° C. for use in an IL-12 ELISA assay (eBiosciences). A 1:1 dilution of supernatant was utilized to perform the IL-12 ELISA following the protocol provided by the manufacturer.

[7] = tested on: Propionibacterium acnes ATCC 6919; assay: MIC, agar dilution method NCCLS M11-A6, Brucella agar, anaerobic (Table 9, superscript c); assay type: cell-based; conditions: letter c: agar dilution NCCLS M11-A6, Brucella agar, anaerobic
How it was run: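 Agar dilution per NCCLS M11-A6 on Brucella agar; final inoculum 1.5×10^8 CFU/milliliter applied to plates, incubated 48-96 hours at 37° C. under anaerobic (GasPak) conditions. MIC = lowest peptide concentration with no colony growth.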

[8] = tested on: Pseudomonas aeruginosa ATCC 27853; conditions: ATCC 27853, pH 7.4

Compound	IC50 (HeLa cells) [µM]	IC50 (Jurkat cells) [µM]	MIC S. aureus [1] [µg/mL]	MIC C. albicans [2] [e ug/mL]	MIC E. coli [3] [µg/mL]	MIC S. dublin (Salmonella dublin (Lane)) [µg/mL]	MIC P. aeruginosa [4] [µg/mL]	MIC S. epidermidis [5] [µg/mL]	MIC P. acnes [6] [µg·days/mL]	reduction of IL-12 release in PBMs stimulated by P. acnes (IL-12 release)	IC50 (IL-12 release) [nM]	MIC P. acnes [7] [c ug/mL]	MIC P. aeruginosa [8] [b ug/mL]
CSCC[C@H](NC(=O)[C@H](Cc1ccccc1)NC(=O)[C@H](CC(N)=O)NC(=O)[C@H](CCCNC(=N)N)NC(=O)[C@H](CO)NC(=O)[C@H](Cc1c[nH]c2ccccc12)NC(=O)[C@H](CC(=O)O)NC(=O)[C@H](CCCNC(=N)N)NC(=O)[C@H](Cc1c[nH]c2ccccc12)NC(=O)[C@H](CCCNC(=N)N)NC(=O)[C@H](CO)NC(=O)[C@H](CCCNC(=N)N)NC(=O)CNC(=O)[C@@H](NC(=O)[C@H](CCCNC(=N)N)NC(=O)[C@H](CO)NC(=O)[C@@H](NC(=O)[C@H](CCCNC(=N)N)NC(=O)[C@@H](NC(C)=O)[C@@H](C)O)C(C)C)[C@@H](C)O)C(=O)N[C@@H](CCCNC(=N)N)C(=O)N[C@@H](C)C(=O)N[C@@H](C)C(N)=O [Peptide 1]	> 100	> 100											
CSCC[C@@H](NC(=O)[C@@H](Cc1ccccc1)NC(=O)[C@@H](CC(N)=O)NC(=O)[C@@H](CCCNC(=N)N)NC(=O)[C@@H](CO)NC(=O)[C@@H](Cc1c[nH]c2ccccc12)NC(=O)[C@@H](CC(=O)O)NC(=O)[C@@H](CCCNC(=N)N)NC(=O)[C@@H](Cc1c[nH]c2ccccc12)NC(=O)[C@@H](CCCNC(=N)N)NC(=O)[C@@H](CO)NC(=O)[C@@H](CCCNC(=N)N)NC(=O)CNC(=O)[C@H](NC(=O)[C@@H](CCCNC(=N)N)NC(=O)[C@@H](CO)NC(=O)[C@H](NC(=O)[C@@H](CCCNC(=N)N)NC(=O)[C@H](NC(C)=O)[C@H](C)O)C(C)C)[C@H](C)O)C(=O)N[C@H](CCCNC(=N)N)C(N)=O [Peptide 33, Ac-trvsrtgrsrwrdwsrnfmr-NH2] (Ac-[dT][dR][dV][dS][dR][dT]G[dR][dS][dR][dW][dR][dD][dW][dS][dR][dN][dF][dM][dR]-NH2)	> 100	67.5	>64	16	>64	64 (≈ 24.1 µM)	>64	32 (≈ 12.1 µM)	12.5				
CCCCCCCCCCCCCCCCCC(=O)N[C@H](C(=O)N[C@@H](CCCNC(=N)N)C(=O)N[C@H](C(=O)N[C@@H](CO)C(=O)N[C@@H](CCCNC(=N)N)C(=O)N[C@H](C(=O)NCC(=O)N[C@@H](CCCNC(=N)N)C(=O)N[C@@H](CO)C(=O)N[C@@H](CCCNC(=N)N)C(=O)N[C@@H](Cc1c[nH]c2ccccc12)C(=O)N[C@@H](CCCNC(=N)N)C(=O)N[C@@H](CC(=O)O)C(=O)N[C@@H](Cc1c[nH]c2ccccc12)C(=O)N[C@@H](CO)C(=O)N[C@@H](CCCNC(=N)N)C(=O)N[C@@H](CC(N)=O)C(=O)N[C@@H](Cc1ccccc1)C(=O)N[C@@H](CCSC)C(=O)N[C@@H](CCCNC(=N)N)C(N)=O)[C@@H](C)O)C(C)C)[C@@H](C)O [Peptide 67] (Stearoyl-TRVSRTGRSRWRDWSRNFMR-NH2)			64 (≈ 22.2 µM)			64 (≈ 22.2 µM)				dose response of reduction of IL-12 release			
CCCCCCCCCCCC(=O)N[C@@H](C(=O)N[C@H](CCCNC(=N)N)C(=O)N[C@@H](C(=O)N[C@H](CO)C(=O)N[C@H](CCCNC(=N)N)C(=O)N[C@@H](C(=O)NCC(=O)N[C@H](CCCNC(=N)N)C(=O)N[C@H](CO)C(=O)N[C@H](CCCNC(=N)N)C(=O)N[C@H](Cc1c[nH]c2ccccc12)C(=O)N[C@H](CCCNC(=N)N)C(=O)N[C@H](CC(=O)O)C(=O)N[C@H](Cc1c[nH]c2ccccc12)C(=O)N[C@H](CO)C(=O)N[C@H](CCCNC(=N)N)C(=O)N[C@H](CC(N)=O)C(=O)N[C@H](Cc1ccccc1)C(=O)N[C@H](CCSC)C(=O)N[C@H](CCCNC(=N)N)C(N)=O)[C@H](C)O)C(C)C)[C@H](C)O [Peptide 76, Lauryl-trvsrtgrsrwrdwsrnfmr-NH2] (Lauroyl-[dT][dR][dV][dS][dR][dT]G[dR][dS][dR][dW][dR][dD][dW][dS][dR][dN][dF][dM][dR]-NH2)	5.49	3.3	2 (≈ 0.716 µM)	16	4 (≈ 1.43 µM)	16 (≈ 5.73 µM)	32 (≈ 11.5 µM)	1 (≈ 0.358 µM)			1120	64	
CCCCCCCCCCCC(=O)N[C@H](CCCNC(=N)N)C(=O)N[C@H](CO)C(=O)N[C@H](CCCNC(=N)N)C(=O)N[C@H](Cc1c[nH]c2ccccc12)C(=O)N[C@H](CCCNC(=N)N)C(=O)N[C@H](CC(=O)O)C(=O)N[C@@H](C(=O)N[C@H](C)C(=O)N[C@H](CCCNC(=N)N)C(=O)N[C@H](CC(N)=O)C(=O)N[C@H](Cc1ccccc1)C(=O)N[C@H](CCSC)C(=O)N[C@H](CCCNC(=N)N)C(N)=O)C(C)C [Peptide 90, Lauryl-rsrwrdvarnfmr-NH2] (Lauroyl-[dR][dS][dR][dW][dR][dD][dV][dA][dR][dN][dF][dM][dR]-NH2)	5 to 15	5 to 15	4 (≈ 2.07 µM)	16	4 (≈ 2.07 µM)	4 (≈ 2.07 µM)		4 (≈ 2.07 µM)				8	3
CSCC[C@H](NC(=O)[C@H](Cc1ccccc1)NC(=O)[C@H](CC(N)=O)NC(=O)[C@H](CCCNC(=N)N)NC(=O)[C@H](CO)NC(=O)[C@@H](NC(=O)[C@H](CC(=O)O)NC(=O)[C@H](CCCNC(=N)N)NC(=O)[C@H](Cc1c[nH]c2ccccc12)NC(=O)[C@H](CCCNC(=N)N)NC(=O)[C@H](CO)NC(=O)[C@H](CCCNC(=N)N)NC(C)=O)C(C)C)C(=O)N[C@@H](CCCNC(=N)N)C(N)=O [Peptide 93, Ac-RSRWRDVSRNFMR-NH2] (Ac-RSRWRDVSRNFMR-NH2)			>64		>64	>64	>64	>64		dose response of reduction of IL-12 release	800		
H2N-kkkkkkkkaatrvartgrsrwrdvarnfmr-NH2 (KKKKKKKKAATRVARTGRSRWRDVARNFMR; N-terminal amine, C-terminal amide) [Peptide 55]											> 20000		
